Assay results from paper PMC10818312, “Ocular and Plasma Pharmacokinetics of Enavogliflozin Ophthalmic Solution in Preclinical Species” (Pharmaceuticals, 2024).

Key:
[1] = Plasma PK after single ocular administration in rats; type: in vivo; details: male, Brown Norway, topical or ocular, 25 ug, rat plasma, single ocular 25 μg
Description: (§1) We used 7-week-old male Brown Norway rats (Central Lab. Animal Inc., Seoul, Republic of Korea) weighing 140–180 g. The rats were acclimated for a minimum of 7 days. For the evaluation of plasma PKs after ocular administration, a single dose of 5 μL of DWRX2008 0.5% (25 μg of enavogliflozin) was topically applied on the left eye. One-year-old male Ridglan beagle dogs (JOHN Bio Co., Nantong, China) weightng 8–10 kg were chosen. The beagle dogs experienced a withdrawal period of over one month. For the evaluation of plasma PKs after ocular administration, a single dose of 20 μL of DWRX2008 0.5% (100 μg of enavogliflozin) was ocularly administered on the left eyes. In rats and beagle dogs, DWRX2008 was administered to the left eye for evaluation of safety and systemic absorption. Male New Zealand White rabbits (Samtako Biokorea, Osan, Republic of Korea) weighing 2.0–2.5 kg were used in PK studies after eye drop instillations. The rabbits were acclimated for 7 days. […]
(§2) A total of three rats were sampled 10 times at 0 (pre-dose), 0.08, 0.25, 0.5, 1, 2, 4, 8, 12 and 24 h post-dose. […] After centrifugation at 14,000 rpm for 5 min, 3 μL of sample was analyzed by LC-MS [24]. […] Finally, 3 μL of sample was analyzed by LC-MS [24]. […] Finally, 3 μL of sample was analyzed by LC-MS [24]. […]

[2] = Plasma PK after single ocular administration in rabbits; type: in vivo; details: male, New Zealand White, topical or ocular, 400 ug, rabbit plasma, single ocular 400 μg (both eye)
Description: as §1, §2

[3] = Plasma and retinal concentration after single oral administration in rabbits; type: in vivo, male New Zealand White rabbits
[4] = Plasma PK after single ocular administration in beagle dogs; type: in vivo; details: male, Ridglan beagle, topical or ocular, 100 ug, beagle dog plasma, single ocular 100 μg
Description: as §1, §2

[5] = Retina/plasma drug concentration ratio in rats; type: in vivo; details: mean (range)
[6] = Melanin binding capability; type: in vitro ADME
[7] = male, New Zealand White, rabbit, in vivo
Description: (§3) We used 9-month-old male rabbits (Envigo, Denver, PA, USA) weighing 3.1–3.7 kg in the PK studies involving a single topical ocular administration of [^14C] enavogliflozin.
(§4) The appropriate quantity of radiolabeled and non-radiolabeled test formulation (if required) was combined with the vehicle to meet the dose level (~77 μCi/eye). […] A single volumetric dose of 30 μL was administered to each eye (600 μg/eye, 1200 μg/head).
(§5) Two animals were euthanized by Euthasol® administration into the marginal ear vein at each predetermined time point (0.5, 1, 2, 4, 8, 24, and 48 h) post-instillation. Subsequently, their heads were frozen in a hexane/dry-ice bath and embedded in a 5% carboxymethylcellulose matrix. The embedded heads were sectioned at 30 μm thickness with less than 20% variation.
(§6) The primary PK parameters for concentrations of enavogliflozin were explored using a noncompartmental method of Phoenix WinNonlin 8.3 (Certara, L.P., Princeton, NJ, USA). The Cmax and Tmax were directly accepted from observed data. The AUC0–t was calculated using the linear trapezoidal method based on the mean radioactivity concentration of both eyes for ocular PKs in rabbits and the linear-up/log-down trapezoidal method for plasma PKs in rats, beagle dogs, and rabbits.

[8] = no reference given; cited from earlier work
hSGLT2 = details: no reference given; read-out: IC50 against hSGLT2; cited from earlier work
hERG = system: hERG; parameters: method as in earlier work; details: ref Daewoong Therapeutics, DWRX2008-IB-01 Investigator’s brochure, data on file; cited from earlier work
[9] = Ocular distribution and blood exposure of radioactivity by autoradiography after single ocular [14C] enavogliflozin (terminal sampling); details: single ocular 600 μg/eye, rabbits
Description: as §3, §4, §5, §6

[10] = left eye, median [min, max], n = 3

Molecule	Tmax [1, 10]	half-life ([1]; mean ± SD (% CV))	half-life ([2]; mean ± SD (% CV))	Tmax ([2]; median [min, max], n = 6)	Tmax ([3]; male, New Zealand White, 400 ug, rabbit plasma, single oral 400 μg, median [min, max], n = 6)	retinal enavogliflozin concentration ([3]; rabbits, oral administration, same dose (400 μg))	Tmax [4, 10]	half-life ([4]; mean ± SD (% CV))	mean retina/plasma (R/P) drug concentration ratio ([5]; 1 h after administration)	mean retina/plasma (R/P) drug concentration ratio ([5]; 3 h after administration)	mean retina/plasma (R/P) drug concentration ratio ([5]; 6 h after administration)	melanin binding capability [6]	time until which retinal concentration remained above the IC50 of SGLT2 [7]	partition coefficient [Log P] [8]	IC50 (hSGLT2)	IC50 (hERG)	AUC0–t in whole blood as % of corresponding value in the plasma ([9]; radioactivity)	Cmax in whole blood as % of corresponding value in the plasma ([9]; radioactivity)	Radioactivity in the optic nerve [9]
OC[C@H]1O[C@@H](c2cc(Cc3ccc(C4CC4)cc3)c(Cl)c3c2CCO3)[C@H](O)[C@@H](O)[C@@H]1O [enavogliflozin]	4 h	5.4 h	3.6 h	0.5 h	0.8 h	below the lower limit of quantification	1 h	10.6 h	3.3 (range: 0.6–6.6)	1.3 (range: 0.2–2.2)	2.6 (range: 1.4–3.3)	approximately 33%	24 h	2.13	0.00043 µM	44.9 µM	–	–	–
[^14C] enavogliflozin	–	–	–	–	–	–	–	–	–	–	–	–	–	–	–	–	64.0%	73.4%	barely detectable
